# In patent US4999042A, “Phenyl oximino-acetate fungicides” (Imperial Chemical Industries PLC, priority 1986, dated 1991):
# Like-named read-outs stand apart in the source and are kept apart here.
# Assays:
# Assay type in all cases: in vivo
# [1] = test system: Puccinia recondita (wheat); assay: Foliar fungal disease control, Puccinia recondita on wheat
# [2] = test system: Erysiphe graminis hordei (barley); assay: Foliar fungal disease control, Erysiphe graminis hordei on barley; details: inoculated 24 hours before treatment
# [3] = test system: Venturia inaequalis (apple); assay: Foliar fungal disease control, Venturia inaequalis on apple
# [4] = test system: Pyricularia oryzae (rice)
# [5] = test system: Cercospora arachidicola (peanut); assay: Foliar fungal disease control, Cercospora arachidicola on peanut
# [6] = test system: Plasmopara viticola (vine); assay: Foliar fungal disease control, Plasmopara viticola on vine
# Maize (MZ) = assay: Plant growth regulating whole plant screen, maize; details: 4000 ppm (4 kg/ha) spray; for P = Phytotoxicity: after 2-6 weeks
# Experimental: (§1) This Example illustrates the plant growth regulating properties of compounds 1, 2, 5 and 12-15 of Table I when tested on a whole plant screen against two species of plant. The plant species are identified in Table IV with the leaf stage at which they were sprayed.
# (§2) A formulation of each chemical was applied at 4000 ppm (4 kg/ha in a 1000 1/ha field volume) using a tracksprayer and a SS8004E (Teejet) nozzle.
# (§3) After spraying, the plants were grown in a glasshouse with 25° C. day/22° C. night temperatures. Supplementary lighting was supplied when necessary to provide an average photoperiod of 16 hours (14 hours minimum).
# (§4) After 2-6 weeks in the glasshouse, depending on species and time of year, the plants were visually assessed for morphological characteristics against a control plant sprayed with a blank formulation.
# Apple (AP) = assay: Plant growth regulating whole plant screen, apple; details: 4000 ppm (4 kg/ha) spray, visual score after 2-6 weeks
# Experimental: as §1, §2, §3, §4
# [7] = 100 ppm foliar spray plus root drench approx. 40 ppm a.i./dry soil, 1-2 days before inoculation
# [8] = 100 ppm foliar spray plus root drench approx. 40 ppm a.i./dry soil
SMILES,"disease control grading, PUCCINIA RECONDITA (WHEAT) [1, 7]","disease control grading, ERYSIPHE GRAMINIS HORDEI (BARLEY) [2, 8]","disease control grading, VENTURIA INAEQUALIS (APPLE) [3, 7]","disease control grading, P[…] (RICE) [4, 7]","disease control grading, CERCOSPORA ARACHIDICOLA (PEANUT) [5, 7]","disease control grading, PLASMOPARA VITICOLA (VINE) [6, 7]",I = Interligular or internodal length reduction (Maize (MZ); visual score after 2-6 weeks),R = Retardation (Maize (MZ); visual score after 2-6 weeks),I = Interligular or internodal length reduction (Apple (AP)),R = Retardation (Apple (AP)),also measured
"CON=C(C(=O)OC)c1ccccc1OC1CCCCC1 (single isomer, unassigned) [Compound 10]",,,,,,,,,,,"disease control grading, PUCCINIA RECONDITA (WHEAT) ([1]; 25 ppm foliar spray only): 3 (trace - 5% of disease on untreated plants); disease control grading, ERYSIPHE GRAMINIS HORDEI (BARLEY) ([2]; 25 ppm foliar spray only): 3 (trace - 5% of disease on untreated plants); disease control grading, VENTURIA INAEQUALIS (APPLE) ([3]; 25 ppm foliar spray only): 2 (6-25% of disease on untreated plants); disease control grading, P[…] (RICE) ([4]; 25 ppm foliar spray only): 3 (trace - 5% of disease on untreated plants); disease control grading, CERCOSPORA ARACHIDICOLA (PEANUT) ([5]; 25 ppm foliar spray only): 0 (60-100% of disease on untreated plants); disease control grading, PLASMOPARA VITICOLA (VINE) ([6]; 25 ppm foliar spray only): 2 (6-25% of disease on untreated plants)"
"CON=C(C(=O)OC)c1ccccc1/C=C/c1ccccc1 (single isomer, unassigned) [Compound 1, methyl O-methyl (2-(E)-styrylphenyl)oximino-acetate]",0 (60-100% of disease on untreated plants),0 (60-100% of disease on untreated plants),3 (trace - 5% of disease on untreated plants),0 (60-100% of disease on untreated plants),0 (60-100% of disease on untreated plants),4,3 (61-100%),3 (61-100%),,,P = Phytotoxicity (Maize (MZ)): 1 (less than 10%); A = Apical damage (Maize (MZ); visual score after 2-6 weeks): 3 (61-100%); G = Greening effect (Maize (MZ); visual score after 2-6 weeks): 2 (31-60%)
"CON=C(C(=O)OC)c1cccc2c1Oc1ccccc1O2 (single isomer, unassigned) [Compound 32]",4,3 (trace - 5% of disease on untreated plants),2 (6-25% of disease on untreated plants),0 (60-100% of disease on untreated plants),1 (26-59% of disease on untreated plants),4,,,,,
"CON=C(C(=O)OC)c1ccccc1Oc1ccc([N+](=O)[O-])cc1 (single isomer, unassigned) [Compound 7]",0 (60-100% of disease on untreated plants),1 (26-59% of disease on untreated plants),3 (trace - 5% of disease on untreated plants),0 (60-100% of disease on untreated plants),0 (60-100% of disease on untreated plants),3 (trace - 5% of disease on untreated plants),,,,,
"CON=C(C(=O)OC)c1ccccc1NC(=O)c1ccco1 (single isomer, unassigned) [Compound 13]",0 (60-100% of disease on untreated plants),0 (60-100% of disease on untreated plants),,0 (60-100% of disease on untreated plants),2 (6-25% of disease on untreated plants),0 (60-100% of disease on untreated plants),1 (10-30%),2 (31-60%),1 (10-30%),2 (31-60%),G = Greening effect (Apple (AP)): 1 (10-30%)
"CON=C(C(=O)OC)c1cccc2c1oc1ccccc12 (single isomer, unassigned) [Compound 18]",3 (trace - 5% of disease on untreated plants),0 (60-100% of disease on untreated plants),4,1 (26-59% of disease on untreated plants),1 (26-59% of disease on untreated plants),4,,,,,
"CON=C(C(=O)OC)c1ccccc1NC(=O)c1ccco1 (single isomer, unassigned) [Compound 14]",,,,,,,,,1 (10-30%),1 (10-30%),
"CO/N=C(/C(=O)OC)c1ccccc1Oc1ccccc1 [Compound 6, methyl O-methyl(2-phenoxyphenyl)oximino-acetate]",4,4,4,3 (trace - 5% of disease on untreated plants),3 (trace - 5% of disease on untreated plants),4,,,,,
"CO/N=C(\C(=O)OC)c1ccccc1Oc1ccccc1 [Compound 5, methyl O-methyl(2-phenoxyphenyl)oximino-acetate]",0 (60-100% of disease on untreated plants),3 (trace - 5% of disease on untreated plants),3 (trace - 5% of disease on untreated plants),1 (26-59% of disease on untreated plants),0 (60-100% of disease on untreated plants),0 (60-100% of disease on untreated plants),3 (61-100%),3 (61-100%),,,P = Phytotoxicity (Maize (MZ)): 1 (less than 10%); A = Apical damage (Maize (MZ); visual score after 2-6 weeks): 3 (61-100%)
"CON=C(C(=O)OC)c1ccccc1NC(=O)c1cccs1 (single isomer, unassigned) [Compound 15]",,,,,,,,,1 (10-30%),1 (10-30%),G = Greening effect (Apple (AP)): 1 (10-30%)
"CON=C(C(=O)OC)c1ccccc1NC(=O)c1ccccc1 (single isomer, unassigned) [Compound 12]",,,,,,,1 (10-30%),2 (31-60%),1 (10-30%),2 (31-60%),G = Greening effect (Apple (AP)): 1 (10-30%)
"CON=C(C(=O)OC)c1ccccc1/C=C/c1ccco1 (single isomer, unassigned) [Compound 4]",4,0 (60-100% of disease on untreated plants),4,3 (trace - 5% of disease on untreated plants),3 (trace - 5% of disease on untreated plants),4,,,,,
"CON=C(C(=O)OC)c1cccc2c1oc1ccccc12 (single isomer, unassigned) [Compound 17]",3 (trace - 5% of disease on untreated plants),0 (60-100% of disease on untreated plants),1 (26-59% of disease on untreated plants),0 (60-100% of disease on untreated plants),0 (60-100% of disease on untreated plants),2 (6-25% of disease on untreated plants),,,,,
"CON=C(C(=O)OC)c1ccccc1/C=C/c1ccco1 (single isomer, unassigned) [Compound 3]",0 (60-100% of disease on untreated plants),0 (60-100% of disease on untreated plants),4,0 (60-100% of disease on untreated plants),0 (60-100% of disease on untreated plants),0 (60-100% of disease on untreated plants),,,,,
"CON=C(C(=O)OC)c1ccccc1N(C)C(=O)c1cccs1 (single isomer, unassigned) [Compound 33]",0 (60-100% of disease on untreated plants),0 (60-100% of disease on untreated plants),4,0 (60-100% of disease on untreated plants),0 (60-100% of disease on untreated plants),0 (60-100% of disease on untreated plants),,,,,
"CON=C(C(=O)OC)c1ccccc1/C=C/c1ccccc1 (single isomer, unassigned) [Compound 2, methyl O-methyl (2-(E)-styrylphenyl)oximino-acetate]",2 (6-25% of disease on untreated plants),0 (60-100% of disease on untreated plants),4,0 (60-100% of disease on untreated plants),0 (60-100% of disease on untreated plants),4,2 (31-60%),2 (31-60%),1 (10-30%),2 (31-60%),A = Apical damage (Maize (MZ); visual score after 2-6 weeks): 2 (31-60%); G = Greening effect (Apple (AP)): 1 (10-30%)
